ChEMBL document CHEMBL5154747, “Discovery of new carbonic anhydrase IX inhibitors as anticancer agents by toning the hydrophobic and hydrophilic rims of the active site to encounter the dual-tail approach” (Eur J Med Chem, 2022)

Key:
Assay type in all cases: functional
[1] = tested on: KM12; assay: Anticancer activity against human KM12 cells assessed as cell growth inhibition incubated for 48 hrs by SRB assay
[2] = tested on: ACHN; assay: Anticancer activity against human ACHN cells assessed as cell growth inhibition at 10 uM incubated for 48 hrs by SRB assay relative to control; settings: read-out: GI
[3] = tested on: SK-OV-3; assay: Anticancer activity against human SK-OV-3 cells assessed as cell growth inhibition incubated for 48 hrs by SRB assay
[4] = tested on: HCC 2998; assay: Anticancer activity against human HCC 2998 cells assessed as cell growth inhibition incubated for 48 hrs by SRB assay
[5] = tested on: HL-60(TB); assay: Anticancer activity against human HL-60(TB) cells assessed as cell growth inhibition at 10 uM incubated for 48 hrs by SRB assay relative to control; settings: read-out: GI
[6] = tested on: NCI-H226; assay: Anticancer activity against human NCI-H226 cells assessed as cell growth inhibition at 10 uM incubated for 48 hrs by SRB assay relative to control; settings: read-out: GI
[7] = tested on: NCI-H322M; assay: Anticancer activity against human NCI-H322M cells assessed as cell growth inhibition incubated for 48 hrs by SRB assay
[8] = tested on: NCI/ADR-RES; assay: Anticancer activity against human NCI/ADR-RES cells assessed as cell growth inhibition at 10 uM incubated for 48 hrs by SRB assay relative to control; settings: read-out: GI
[9] = tested on: RPMI-8226; assay: Anticancer activity against human RPMI-8226 cells assessed as cell growth inhibition incubated for 48 hrs by SRB assay
[10] = tested on: SK-MEL-28; assay: Anticancer activity against human SK-MEL-28 cells assessed as cell growth inhibition at 10 uM incubated for 48 hrs by SRB assay relative to control; settings: read-out: GI
[11] = tested on: HCC 2998; assay: Anticancer activity against human HCC 2998 cells assessed as cell growth inhibition at 10 uM incubated for 48 hrs by SRB assay relative to control; settings: read-out: GI
[12] = tested on: OVCAR-4; assay: Anticancer activity against human OVCAR-4 cells assessed as cell growth inhibition incubated for 48 hrs by SRB assay
[13] = tested on: SF-295; assay: Anticancer activity against human SF-295 cells assessed as cell growth inhibition at 10 uM incubated for 48 hrs by SRB assay relative to control; settings: read-out: GI
[14] = tested on: DU-145; assay: Anticancer activity against human DU-145 cells assessed as cell growth inhibition at 10 uM incubated for 48 hrs by SRB assay relative to control; settings: read-out: GI
[15] = tested on: HCT-116; assay: Anticancer activity against human HCT-116 cells assessed as cell growth inhibition incubated for 48 hrs by SRB assay
[16] = tested on: NCI/ADR-RES; assay: Anticancer activity against human NCI/ADR-RES cells assessed as cell growth inhibition incubated for 48 hrs by SRB assay
[17] = tested on: CAKI-1; assay: Anticancer activity against human CAKI-1 cells assessed as cell growth inhibition at 10 uM incubated for 48 hrs by SRB assay relative to control; settings: read-out: GI
[18] = tested on: SW-620; assay: Anticancer activity against human SW-620 cells assessed as cell growth inhibition at 10 uM incubated for 48 hrs by SRB assay relative to control; settings: read-out: GI
[19] = tested on: UACC-62; assay: Anticancer activity against human UACC-62 cells assessed as cell growth inhibition incubated for 48 hrs by SRB assay
[20] = tested on: UACC-257; assay: Anticancer activity against human UACC-257 cells assessed as cell growth inhibition at 10 uM incubated for 48 hrs by SRB assay relative to control; settings: read-out: GI
[21] = tested on: IGROV-1; assay: Anticancer activity against human IGROV-1 cells assessed as cell growth inhibition at 10 uM incubated for 48 hrs by SRB assay relative to control; settings: read-out: GI
[22] = tested on: UACC-62; assay: Anticancer activity against human UACC-62 cells assessed as cell growth inhibition at 10 uM incubated for 48 hrs by SRB assay relative to control; settings: read-out: GI
[23] = tested on: SK-OV-3; assay: Anticancer activity against human SK-OV-3 cells assessed as cell growth inhibition at 10 uM incubated for 48 hrs by SRB assay relative to control; settings: read-out: GI
[24] = tested on: SK-MEL-5; assay: Anticancer activity against human SK-MEL-5 cells assessed as cell growth inhibition incubated for 48 hrs by SRB assay
[25] = tested on: MOLT-4; assay: Anticancer activity against human MOLT-4 cells assessed as cell growth inhibition incubated for 48 hrs by SRB assay
[26] = tested on: HCT-15; assay: Anticancer activity against human HCT-15 cells assessed as cell growth inhibition incubated for 48 hrs by SRB assay
[27] = tested on: HOP-92; assay: Anticancer activity against human HOP-92 cells assessed as cell growth inhibition incubated for 48 hrs by SRB assay
[28] = tested on: HCT-116; assay: Anticancer activity against human HCT-116 cells assessed as cell growth inhibition at 10 uM incubated for 48 hrs by SRB assay relative to control; settings: read-out: GI
[29] = tested on: A549; assay: Anticancer activity against human A549 cells assessed as cell growth inhibition incubated for 48 hrs by SRB assay
[30] = tested on: SR; assay: Anticancer activity against human SR cells assessed as cell growth inhibition at 10 uM incubated for 48 hrs by SRB assay relative to control; settings: read-out: GI
[31] = tested on: BT-549; assay: Anticancer activity against human BT-549 cells assessed as cell growth inhibition at 10 uM incubated for 48 hrs by SRB assay relative to control; settings: read-out: GI
[32] = tested on: Hs-578T; assay: Anticancer activity against human Hs-578T cells assessed as cell growth inhibition incubated for 48 hrs by SRB assay
[33] = tested on: MDA-MB-435; assay: Anticancer activity against human MDA-MB-435 cells assessed as cell growth inhibition at 10 uM incubated for 48 hrs by SRB assay relative to control; settings: read-out: GI
[34] = tested on: NCI-H322M; assay: Anticancer activity against human NCI-H322M cells assessed as cell growth inhibition at 10 uM incubated for 48 hrs by SRB assay relative to control; settings: read-out: GI
[35] = tested on: SN12C; assay: Anticancer activity against human SN12C cells assessed as cell growth inhibition incubated for 48 hrs by SRB assay
[36] = tested on: EKVX; assay: Anticancer activity against human EKVX cells assessed as cell growth inhibition incubated for 48 hrs by SRB assay
[37] = tested on: K562; assay: Anticancer activity against human K562 cells assessed as cell growth inhibition incubated for 48 hrs by SRB assay
[38] = tested on: UO-31; assay: Anticancer activity against human UO-31 cells assessed as cell growth inhibition incubated for 48 hrs by SRB assay
[39] = tested on: NCI-H23; assay: Anticancer activity against human NCI-H23 cells assessed as cell growth inhibition incubated for 48 hrs by SRB assay
[40] = tested on: CCRF-CEM; assay: Anticancer activity against human CCRF-CEM cells assessed as cell growth inhibition at 10 uM incubated for 48 hrs by SRB assay relative to control; settings: read-out: GI
[41] = read-out: LC50 (the source's name)

`NS(=O)(=O)c1ccc(Nc2nc(N/N=C/c3ccccn3)nc(Nc3ccccc3)n2)cc1` gave a GI50 [1] of 2140 nM, a CC50 [1, 41] of over 100000 nM and an inhibition of growth at 10 µM [2] of 82%. The GI50 [3] was 840 nM, the LC50 [3] was over 100000 nM and the GI50 [4] was 650 nM. The CC50 [4, 41] was over 100000 nM, the inhibition of growth at 10 µM [5] was 97% and the inhibition of growth at 10 µM [6] was 149%. For the same molecule, the GI50 [7] was 400 nM, the CC50 [7, 41] was over 100000 nM and the inhibition of growth at 10 µM [8] was 51%. The GI50 [9] was 2110 nM, the LC50 (concentration killing 50% of cells) [9] was over 100000 nM and the inhibition of growth at 10 µM [10] was 164%. It also gave an inhibition of growth at 10 µM [11] of 174%, a GI50 [12] of 440 nM and an LC50 (concentration killing 50% of cells) [12] of over 100000 nM. The inhibition of growth at 10 µM [13] was 100%, the inhibition of growth at 10 µM [14] was 95% and the GI50 [15] was 390 nM. For the same molecule, the LC50 (concentration killing 50% of cells) [15] was over 100000 nM, the GI50 [16] was 2750 nM and the CC50 [16, 41] was over 100000 nM. For the same molecule, the inhibition of growth at 10 µM [17] was 125%, the inhibition of growth at 10 µM [18] was 117% and the GI50 [19] was 570 nM. It also gave an LC50 [19] of 6150 nM, an inhibition of growth at 10 µM [20] of 118% and an inhibition of growth at 10 µM [21] of 130%. The inhibition of growth at 10 µM [22] was 149%, the inhibition of growth at 10 µM [23] was 131% and the GI50 [24] was 780 nM. The LC50 [24] was 4710 nM, the GI50 [25] was 430 nM and the CC50 [25, 41] was over 100000 nM. It also gave a GI50 [26] of 1450 nM, a CC50 [26, 41] of over 100000 nM and a GI50 [27] of 800 nM. It also gave a CC50 [27, 41] of over 100000 nM, an inhibition of growth at 10 µM [28] of 129% and a GI50 [29] of 2290 nM. The LC50 [29] was over 100000 nM, the inhibition of growth at 10 µM [30] was 87% and the inhibition of growth at 10 µM [31] was 120%. For the same molecule, the GI50 [32] was 1880 nM, the LC50 (concentration killing 50% of cells) [32] was over 100000 nM and the inhibition of growth at 10 µM [33] was 184%. For the same molecule, the inhibition of growth at 10 µM [34] was 109%, the GI50 [35] was 1010 nM and the LC50 [35] was over 100000 nM. The GI50 [36] was 710 nM, the CC50 [36, 41] was over 100000 nM and the GI50 [37] was 400 nM. The CC50 [37, 41] was over 100000 nM, the GI50 [38] was 1500 nM and the CC50 [38, 41] was 89500 nM. For the same molecule, the GI50 [39] was 1210 nM, the CC50 [39, 41] was 8410 nM and the inhibition of growth at 10 µM [40] was 94%.

`CN(C)c1ccc(/C=N/Nc2nc(Nc3ccccc3)nc(Nc3ccc(S(N)(=O)=O)cc3)n2)cc1` was tested, and the inhibition of growth at 10 µM [2] was 15%, the inhibition of growth at 10 µM [5] was 29% and the inhibition of growth at 10 µM [6] was 21%. It also gave an inhibition of growth at 10 µM [8] of under 10%, an inhibition of growth at 10 µM [10] of 10% and an inhibition of growth at 10 µM [11] of under 10%. The inhibition of growth at 10 µM [13] was 53%, the inhibition of growth at 10 µM [14] was 26% and the inhibition of growth at 10 µM [17] was under 10%. For the same molecule, the inhibition of growth at 10 µM [18] was 17%, the inhibition of growth at 10 µM [20] was under 10% and the inhibition of growth at 10 µM [21] was 28%. For the same molecule, the inhibition of growth at 10 µM [22] was under 10%, the inhibition of growth at 10 µM [23] was under 10% and the inhibition of growth at 10 µM [28] was 45%. The inhibition of growth at 10 µM [30] was 29%, the inhibition of growth at 10 µM [31] was under 10% and the inhibition of growth at 10 µM [33] was 11%. For the same molecule, the inhibition of growth at 10 µM [34] was 15% and the inhibition of growth at 10 µM [40] was 53%.

`NS(=O)(=O)c1ccc(Nc2nc(N/N=C/c3cccs3)nc(Nc3ccccc3)n2)cc1` gave an inhibition of growth at 10 µM [2] of 21%, an inhibition of growth at 10 µM [5] of 29% and an inhibition of growth at 10 µM [6] of 29%. It also gave an inhibition of growth at 10 µM [8] of under 10%, an inhibition of growth at 10 µM [10] of 20% and an inhibition of growth at 10 µM [11] of 11%. For the same molecule, the inhibition of growth at 10 µM [13] was 23%, the inhibition of growth at 10 µM [14] was 40% and the inhibition of growth at 10 µM [17] was 44%. The inhibition of growth at 10 µM [18] was 10%, the inhibition of growth at 10 µM [20] was under 10% and the inhibition of growth at 10 µM [21] was 65%. It also gave an inhibition of growth at 10 µM [22] of 24%, an inhibition of growth at 10 µM [23] of under 10% and an inhibition of growth at 10 µM [28] of 74%. The inhibition of growth at 10 µM [30] was 52%, the inhibition of growth at 10 µM [31] was 22% and the inhibition of growth at 10 µM [33] was 25%. The inhibition of growth at 10 µM [34] was 23% and the inhibition of growth at 10 µM [40] was 68%.
